Data: US10889553B2, “Asymmetric triazole benzamide derivatives and the compositions and methods of treatment regarding the same” (NysnoBio Ireland DAC, priority 2017, dated 2021)
Like-named read-outs stand apart in the source and are kept apart here.

Key:
[1] = Microsomal stability assay, rat liver microsomes; assay type: in vitro ADME; conditions: pH 7.4; rat liver microsomes 1.0 mg/mL, 1 μM compound, NADPH; read-out: RLM t1/2
Method: Compounds were also tested for metabolic stability in both rat liver microsomes (RLM) and the compounds are tested for human liver microsomes (HLM) and their half-life is calculated (See Tables 5A and 5B). The assay was performed as follows. The total volume for each incubation was 250 μL. A 100 μM DMSO solution of compound (diluted from 10 mM stock solution) was spiked into 50 mM KH2PO4 (pH 7.4) buffer containing liver microsome at a concentration of 1.0 mg/mL. The reaction was initiated by the addition of 50 μL of 1 mM NADPH. The final concentration of each compound was 1 μM (1% DMSO). The positive controls, phenacetin for CYP1A2, diclofenac for CYP2C9, omeprazole for CYP2C19, dextromethorphan for CYP2D6 and midazolam for CYP3A4 were added to a separate tube with the final substrate concentrations of 1 μM (1% DMSO) for evaluating the enzyme activities in the liver microsomes. At 0, 15, 30 and 60 min, an aliquot of 15 μL reaction mixtures were removed and 200 μL of methanol (with internal standard of 25 ng/mL propranolol) was added to quench the reaction. The resulting mixture was centrifuged and supernatant was used for LC-MS/MS analysis.
The signals for each compound, or the metabolites for the probe substrates and the internal standard were integrated and the peak area ratios to internal standard were generated. Percent parent remaining at a specified timepoint was calculated based on the peak area ratios at time 0 (as 100%) for in vitro metabolic stability studies in liver microsome and hepatocyte. The observed rate constant (kobs) for the metabolism of substrates was calculated by plotting the natural log of percentage substrate remaining versus time of incubation with the slope being kobs. The half-life (T1/2) was calculated according to the following equation: T1/2=[…]

TOV-21G (ovarian) = assay: Cancer cell proliferation assay (acid phosphatase); assay type: cell-based; conditions: Homo sapiens, TOV21G
In short: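 Seed 4×10^4 cells/ml, overnight 37° C./5% CO2; add compound (varying conc., triplicate); incubate 72 hrs; wash PBS; acid phosphatase substrate pH 5.5, 2 h; stop NaOH; read 405/620 nm; % inhibition vs DMSO.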

[2] = 72 h, Table 6A, 72 hrs, read-out: TOV-21G IC50

SMILES | half-life at 1 μM [1] | IC50 (TOV-21G (ovarian); [2]) | IC50 (TOV-21G (ovarian); Table 6A, 72 hrs, read-out: TOV-21G IC50) | IC50 (TOV-21G (ovarian); Table 6C, data of FIG. 2, read-out: IC50 (μM) TOV-21G (ovarian)) | EC50 (TOV-21G (ovarian); Table 6D, another set of cell proliferation assay) | IC50 (TOV-21G (ovarian); Table 6E, read-out: Proliferation IC50 (nM) Ovarian TOV21G)
C#Cc1ccc(C(=O)Nc2nc(NC(=O)c3cccc(N=[N+]=[N-])c3)n(-c3ccccc3)n2)cc1 [Compound 2] | 41 min | 2.2 µM |  |  |  | 
Cc1ccccc1C(=O)Nc1nc(NC(=O)c2cccnc2)nn1-c1ccccc1 [Compound 6] | 5 min | 1.2 µM |  |  |  | 
Cc1ccccc1C(=O)Nc1nc(NC(=O)c2ccno2)n(-c2ccccc2)n1 [Compound 7] | 239 min | > 1 µM |  |  |  | 
Cc1ccccc1C(=O)Nc1nc(NC(=O)c2ccccn2)nn1-c1ccccc1 [Compound 16] | 141 min | 2.3 µM |  |  |  | 
Cc1ccccc1C(=O)Nc1nc(NC(=O)c2cnccn2)n(-c2ccccc2)n1 [Compound 17] | 26 min | > 1 µM |  |  |  | 
Cc1ccccc1C(=O)Nc1nc(NC(=O)C2CCCN2)nn1-c1ccccc1 (stereo not drawn) [Compound 20] | 147 min | > 1 µM |  |  |  | 
Cc1ccc(C(=O)Nc2nc(NC(=O)c3ccc(C)cc3)n(-c3ccccc3)n2)cc1 [Compound 21] | 6 min | 2.5 µM |  |  |  | 
COc1ccccc1C(=O)Nc1nc(NC(=O)c2ccccc2OC)n(-c2ccccc2)n1 [Compound 23] | 21 min | 2.4 µM |  |  |  | 
Cc1ccccc1C(=O)Nc1nc(NC(=O)c2ccccc2C)n(-c2ccc(F)c(F)c2)n1 [Compound 24] | 131 min | 0.97 µM |  |  |  | 
Cc1ccccc1C(=O)Nc1nc(NC(=O)c2ccccc2C)n(-c2ccc(C(F)(F)F)cc2)n1 [Compound 25] | 408 min | < 0.1 µM |  |  |  | 
Cc1ccccc1C(=O)Nc1nc(NC(=O)c2ccccc2C)n(-c2ccccc2Cl)n1 [Compound 26] | 58 min | 2.1 µM |  |  |  | 
Cc1ccc(-n2nc(NC(=O)c3ccccc3C)nc2NC(=O)c2ccccc2C)cc1 [Compound 31] | 14 min | 2.3 µM |  |  |  | 
Cc1ccccc1C(=O)Nc1nc(NC(=O)c2ccccc2C)n(-c2ccccc2F)n1 [Compound 32] | 204 min | > 2.5 µM |  |  |  | 
O=C(Nc1nc(NC(=O)c2ccncc2)n(-c2ccccc2)n1)c1ccncc1 [Compound 33] | 198 min | > 2.5 µM |  |  |  | 
Cc1ccccc1C(=O)Nc1nc(NC(=O)c2ccncc2)nn1-c1ccccc1 [Compound 34] | 330 min | 1.5 µM |  |  |  | 
Cc1ccccc1C(=O)Nc1nc(NC(=O)c2ccccc2C)n(-c2ccc(C#N)cc2)n1 [Compound 35] | 198 min | 1.4 µM |  |  |  | 
Cc1ccccc1C(=O)Nc1nc(NC(=O)c2ccccc2C)n(-c2cccc(Cl)c2)n1 [Compound 36] | 63 min | 0.3 µM |  |  |  | 
COc1ccc(C(=O)Nc2nc(NC(=O)c3ccc(OC)cc3)n(-c3ccccc3)n2)cc1 [Compound 37] | 21 min | 1.9 µM |  |  |  | 
Cc1cccc(-n2nc(NC(=O)c3ccccc3C)nc2NC(=O)c2ccccc2C)c1 [Compound 38] | 26 min | 1.7 µM |  |  |  | 
Cc1ccccc1C(=O)Nc1nc(NC(=O)c2ccccc2C)n(-c2cccc(F)c2)n1 [Compound 39] | 133 min | 1.5 µM |  |  |  | 
O=C(Nc1nc(NC(=O)c2cccnc2)n(-c2ccccc2)n1)c1cccnc1 [Compound 40] | > 500 min | > 2.5 µM |  |  |  | 
O=C(Nc1nc(NC(=O)c2ccccn2)n(-c2ccccc2)n1)c1ccccn1 [Compound 41] | 17 min | > 2.5 µM |  |  |  | 
Cc1ccccc1C(=O)Nc1nc(NC(=O)c2ccccc2C)n(-c2ccc(OC(F)(F)F)cc2)n1 [Compound 42, N,N′-(1-(4-(trifluoromethoxy)phenyl)-1H-1,2,4-triazole-3,5-diyl)bis(2-methylbenzamide)] | 231 min |  | 0.25 µM | 0.15 µM | 74 nM | 0.109 µM
Cc1ccccc1C(=O)Nc1nc(NC(=O)c2ccccc2C)n(-c2ccc(N3CCCCC3)cc2)n1 [Compound 44] | 6 min | 1.9 µM |  |  |  | 
Cc1ccccc1C(=O)Nc1nc(NC(=O)c2ccccc2C)n(-c2ccc(F)cc2F)n1 [Compound 46] | 97 min | 2.4 µM |  |  |  | 
Cc1ccccc1C(=O)Nc1nc(NCc2ccccc2)nn1-c1ccc(C(F)(F)F)cc1 [Compound 102] | 10 min | > 2.5 µM |  |  |  | 
Cc1ccnc(-c2nc(NC(=O)c3ccccc3C)n(-c3ccccc3)n2)c1 [Compound 124] | 43 min | 0.59 µM |  |  |  | 
